In US9688637B2, “3-amidobenzamides and uses thereof for increasing cellular levels of A3G and other A3 family members” (Northwestern University, priority 2014, dated 2017):

How the values were obtained:
HIV NL4-3 = experiment: Infectivity of virions from 293T co-transfected with NL4-3 and A3F, TZM-bl cells; format: cell-based, HIV-1; details: co-transfection of 293T with HIV NL4-3 and A3F (FIG. 8)
Protocol: FIG. 8. 293T cells were co-transfected with […] of NL4.3 plasmid DNA and 400 ng of either control or A3F/G DNAs, with or without NU52. Infectivity of equal amounts of resulting viruses (normalized by HIV-1 p24 antigen) were measured using TZM-bl cells. NU-52 treatment of producer cell reduced infectivity of virus produced from those cells.

wild type A3F = biological target: T1, wild type A3F (Homo sapiens, UniProt Q8IUX4); experiment: Steady state A3 protein level by immunoblot in transiently transfected 293T cells; format: cell-based; details: 293T transiently transfected, immunoblot (FIG. 7)
T1 construct: expressed in transfected cells; host or cells: 293T, transient transfection
Protocol: (§1) FIG. 7. 293T cells were transiently transfected with 400 ng of expression vectors for wild type A3G (A3G), a mutant A3G (A3G Y124A), and A3F (A3F) to test effect of NU52 treatment on steady state levels of the respective A3 protein, as detected by immunoblotting with respective antibodies, with GAPDH as loading control.

wild type A3G = biological target: T2, wild type A3G (Homo sapiens, UniProt Q9HC16); experiment: as above; format: cell-based; details: 293T transiently transfected, immunoblot (FIG. 7)
T2 construct: expressed in transfected cells; host or cells: 293T, transient transfection
Protocol: as §1

mutant Y124A A3G = biological target: T3, mutant Y124A A3G (Homo sapiens, UniProt Q9HC16, Y124A); experiment: as above; format: cell-based; details: 293T transiently transfected, immunoblot (FIG. 7)
T3 construct: expressed in transfected cells; host or cells: 293T, transient transfection
Protocol: as §1

T1 sequence (Q8IUX4 whole entry): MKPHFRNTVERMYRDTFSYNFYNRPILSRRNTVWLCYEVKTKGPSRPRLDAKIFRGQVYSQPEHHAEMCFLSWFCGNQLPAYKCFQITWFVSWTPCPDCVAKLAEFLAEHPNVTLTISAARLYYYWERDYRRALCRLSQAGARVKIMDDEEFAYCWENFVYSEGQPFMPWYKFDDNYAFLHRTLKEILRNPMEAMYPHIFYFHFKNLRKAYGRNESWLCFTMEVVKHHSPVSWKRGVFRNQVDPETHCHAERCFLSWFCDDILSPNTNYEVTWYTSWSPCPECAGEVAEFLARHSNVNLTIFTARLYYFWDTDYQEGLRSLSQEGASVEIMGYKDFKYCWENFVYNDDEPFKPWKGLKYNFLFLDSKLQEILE
T2 sequence (Q9HC16 whole entry): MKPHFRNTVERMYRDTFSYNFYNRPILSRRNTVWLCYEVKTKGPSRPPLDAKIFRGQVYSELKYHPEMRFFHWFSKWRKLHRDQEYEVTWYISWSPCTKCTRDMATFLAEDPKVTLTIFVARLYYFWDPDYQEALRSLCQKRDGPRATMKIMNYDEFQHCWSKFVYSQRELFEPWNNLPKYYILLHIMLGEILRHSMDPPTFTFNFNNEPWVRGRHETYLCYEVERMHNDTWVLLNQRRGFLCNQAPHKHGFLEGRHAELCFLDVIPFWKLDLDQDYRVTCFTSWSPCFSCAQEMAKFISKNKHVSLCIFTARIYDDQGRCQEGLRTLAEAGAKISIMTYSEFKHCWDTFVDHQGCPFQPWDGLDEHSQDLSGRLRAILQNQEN
T3 sequence (Q9HC16 whole entry Y124A): as the sequence (Q9HC16 whole entry) above, with Y124A counted along it

Compound: COc1ccc(C(=O)Nc2ccc(Cl)c(Cl)c2)cc1NC(=O)C(C)C [NU-52]
- infectivity of virions (HIV NL4-3): decreased infectivity
- expression of wild type A3F (wild type A3F): increased
- expression of wild type A3G (wild type A3G): increased
- expression of mutant Y124A A3G (mutant Y124A A3G): increased
